From patent US9884063B2, “Amido-substituted azole compounds” (Bayer Pharma Aktiengesellschaft, priority 2014, dated 2018) come the findings set out here.

The structures appear in SMILES notation.

In assay [1] the test system is HEK293 FOP control reporter cell line. Description: HEK293 FOP Assay (FOP control vector luciferase reporter). Particulars: Homo sapiens; HEK293 FOP control reporter cell line, 16 hours incubation, compound dilution series 50 μM to 15 nM. It counts as cell-based. The method in brief:
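Stable HEK293 line carrying the FOP vector (randomized, non-functional TCF sites; Geneticin-selected) was run in parallel with the TOP line. Cells were plated 24 h ahead at 10000/well and given recombinant human Wnt-3a at 2500–5 ng/ml. Compounds were tested at 50 μM–15 nM (3.16-fold steps) in CAFTY buffer, pH 7.4, with 2 mM Ca2+ and 0.01% BSA.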
For orientation: A reporter such as luciferase makes a cellular process visible.

The next assay has as its target T1, TNKS1 (Homo sapiens, UniProt O95271).
T1 sequence (O95271 1-1327): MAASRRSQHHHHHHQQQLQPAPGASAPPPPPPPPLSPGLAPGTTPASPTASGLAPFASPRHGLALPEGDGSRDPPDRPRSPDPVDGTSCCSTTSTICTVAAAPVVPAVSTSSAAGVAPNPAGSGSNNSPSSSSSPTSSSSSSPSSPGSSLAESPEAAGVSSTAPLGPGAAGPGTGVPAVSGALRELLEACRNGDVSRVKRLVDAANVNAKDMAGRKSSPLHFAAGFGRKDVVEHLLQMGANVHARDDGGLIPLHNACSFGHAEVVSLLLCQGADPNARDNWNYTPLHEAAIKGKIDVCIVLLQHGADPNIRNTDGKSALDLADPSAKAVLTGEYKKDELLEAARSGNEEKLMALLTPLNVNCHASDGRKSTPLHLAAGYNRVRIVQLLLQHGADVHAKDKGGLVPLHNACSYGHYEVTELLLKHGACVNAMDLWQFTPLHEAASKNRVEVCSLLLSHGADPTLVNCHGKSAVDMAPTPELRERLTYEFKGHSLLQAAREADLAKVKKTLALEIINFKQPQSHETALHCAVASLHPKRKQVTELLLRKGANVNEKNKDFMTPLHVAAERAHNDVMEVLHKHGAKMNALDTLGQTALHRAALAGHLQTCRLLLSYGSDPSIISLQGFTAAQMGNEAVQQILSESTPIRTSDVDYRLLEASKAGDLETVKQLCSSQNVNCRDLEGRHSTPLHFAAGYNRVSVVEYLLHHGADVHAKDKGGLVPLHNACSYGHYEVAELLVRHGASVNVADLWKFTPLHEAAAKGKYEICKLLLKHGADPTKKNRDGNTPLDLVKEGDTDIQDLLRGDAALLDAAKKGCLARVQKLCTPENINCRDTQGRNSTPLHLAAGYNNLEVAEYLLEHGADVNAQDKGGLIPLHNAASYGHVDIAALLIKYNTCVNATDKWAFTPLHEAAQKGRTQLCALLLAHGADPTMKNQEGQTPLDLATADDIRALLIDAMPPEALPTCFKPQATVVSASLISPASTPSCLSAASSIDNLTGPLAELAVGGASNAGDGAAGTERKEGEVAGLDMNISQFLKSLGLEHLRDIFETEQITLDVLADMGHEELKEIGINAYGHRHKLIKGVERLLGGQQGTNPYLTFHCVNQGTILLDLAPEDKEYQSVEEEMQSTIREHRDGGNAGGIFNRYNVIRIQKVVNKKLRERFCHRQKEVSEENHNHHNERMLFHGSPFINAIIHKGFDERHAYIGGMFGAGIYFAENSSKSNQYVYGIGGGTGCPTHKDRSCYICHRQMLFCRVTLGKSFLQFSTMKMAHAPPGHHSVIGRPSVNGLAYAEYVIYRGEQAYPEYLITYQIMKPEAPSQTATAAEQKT
Description: Modified TNKS1 Assay 2 (auto-parsylation, [3H]-NAD+ SPA). As to conditions: 6 nM TNKS1, 96 well. Format: biochemical.

With `CNC(=O)c1nc[nH]c1C(=O)Nc1ccc(NC(=O)c2cc(Br)ccc2Cl)cc1` [Example 313, N^5-{4-[(5-bromo-2-chlorobenzoyl)amino]phenyl}-N^4-methyl-1H-imidazole-4,5-dicarboxamide], the values for the IC50 (in assay [1]; against TNKS1) were 25 µM and 0.42 µM, respectively.

In the case of `CNC(=O)c1nc[nH]c1C(=O)Nc1ccc(NC(=O)c2ccc(Cl)cc2F)cc1` [Example 333, N^5-{4-[(4-chloro-2-fluorobenzoyl)amino]phenyl}-N^4-methyl-1H-imidazole-4,5-dicarboxamide], the IC50 (in general, the concentration at which inhibition is half-maximal) in assay [1] turned out to be 40 µM; against TNKS1, 0.96 µM.

On to `CC(C)N(CCNC(=O)c1nc[nH]c1C(=O)Nc1ccc(NC(=O)c2ccc(F)cc2Cl)cc1)C(C)C` [Example 389, N^5-{4-[(2-chloro-4-fluorobenzoyl)amino]phenyl}-N^4-{2-[di(propan-2-yl)amino]ethyl}-1H-imidazole-4,5-dicarboxamide], for which the results for the IC50 (in assay [1]; on TNKS1) were 11 µM and 0.15 µM, respectively.

On to `CC1(C)CC(NC(=O)c2nc[nH]c2C(=O)Nc2ccc(NC(=O)c3ccc(F)cc3Cl)cc2)CCO1` (stereo not drawn) [Example 391, N^5-{4-[(2-chloro-4-fluorobenzoyl)amino]phenyl}-N^4-(2,2-dimethyltetrahydro-2H-pyran-4-yl)-1H-imidazole-4,5-dicarboxamide], for which the results for the IC50 (in assay [1]; at TNKS1) were 27 µM and 0.4 µM, respectively.

For the molecule `CCN1CCC[C@@H]1CNC(=O)c1nc[nH]c1C(=O)Nc1ccc(NC(=O)c2ccc(F)cc2Cl)cc1` [Example 413, N^5-{4-[(2-chloro-4-fluorobenzoyl)amino]phenyl}-N^4-{[(2R)-1-ethylpyrrolidin-2-yl]methyl}-1H-imidazole-4,5-dicarboxamide], the IC50 in assay [1] turned out to be 26 µM; on TNKS1 it was 0.08 µM.

For the molecule `CN1CCN(CC(C)(C)CNC(=O)c2nc[nH]c2C(=O)Nc2ccc(NC(=O)c3ccc(F)cc3Cl)cc2)CC1` [Example 415, N^5-{4-[(2-chloro-4-fluorobenzoyl)amino]phenyl}-N^4-[2,2-dimethyl-3-(4-methylpiperazin-1-yl)propyl]-1H-imidazole-4,5-dicarboxamide], the IC50 in assay [1] was 7.8 µM; against TNKS1 it was 0.07 µM.
